Results from patent US11959086B2, “Dual transit peptides for targeting polypeptides” (BASF AGRO B.V., priority 2016, dated 2024).

Key:
Assay in all cases: Herbicide injury evaluation of Arabidopsis plants, greenhouse
Format in all cases: in vivo
[1] = system: transgenic Arabidopsis thaliana, transgene SEQ ID NO 118; settings: scale 0-100
[2] = system: Wildtype/non-transgenic Arabidopsis thaliana; settings: scale 0-100
[3] = system: transgenic Arabidopsis thaliana, transgene SEQ ID NO 120; settings: Table 4, scale 0-100
[4] = system: transgenic Arabidopsis thaliana, transgene SEQ ID NO 117; settings: Table 3, scale 0-100
[5] = system: transgenic Arabidopsis thaliana, transgene SEQ ID NO 128; settings: Table 3, scale 0-100
[6] = system: transgenic Arabidopsis thaliana, transgene SEQ ID NO 121; settings: Table 3, scale 0-100

**Q.** Which “Herbicide injury evaluation 14 days after herbicide treatment” value (“Herbicide injury evaluation 14 days” for short) ([1]; Table 4, SEQ ID NO 118 Q, 50 g ai/ha + 1% MSO) does the source give for CCOC(=O)COc1ncccc1Oc1cc(-n2c(=O)cc(C(F)(F)F)n(C)c2=O)c(F)cc1Cl [S3100, ethyl [3-[2-chloro-4-fluoro-5-(1-methyl-6-trifluoromethyl-2,4-dioxo-1,2,3,4-tetrahydropyrimidin-3-yl)phenoxy]-2-pyridyloxy]acetate] here?
**A.** 65

**Q.** What about the “Herbicide injury evaluation 14 days” value ([1]; Table 4, SEQ ID NO 118 Q, 100 g ai/ha + 1% MSO) of the same compound?
**A.** 65

**Q.** And the “Herbicide injury evaluation 14 days” value ([1]; Table 4, SEQ ID NO 118 Q, 200 g ai/ha + 1% MSO)?
**A.** 65

**Q.** And the “Herbicide injury evaluation 14 days” value ([1]; Table 4, SEQ ID NO 118 R, 50 g ai/ha + 1% MSO)?
**A.** 60

**Q.** And the “Herbicide injury evaluation 14 days” value ([1]; Table 4, SEQ ID NO 118 R, 100 g ai/ha + 1% MSO)?
**A.** 63

**Q.** And the “Herbicide injury evaluation 14 days” value ([1]; Table 4, SEQ ID NO 118 R, 200 g ai/ha + 1% MSO)?
**A.** 53

**Q.** What about the “Herbicide injury evaluation 14 days” value ([2]; Table 4, 50 g ai/ha + 1% MSO) of the same compound?
**A.** 100

**Q.** And the “Herbicide injury evaluation 14 days” value ([2]; Table 4, 100 g ai/ha + 1% MSO)?
**A.** 100

**Q.** What about the “Herbicide injury evaluation 14 days” value ([2]; Table 4, 200 g ai/ha + 1% MSO) of the same compound?
**A.** 100

**Q.** What about the “Herbicide injury evaluation 14 days” value ([3]; SEQ ID NO 120 J, 50 g ai/ha + 1% MSO) of the same compound?
**A.** 75

**Q.** What about the “Herbicide injury evaluation 14 days” value ([3]; SEQ ID NO 120 J, 100 g ai/ha + 1% MSO) of the same compound?
**A.** 95

**Q.** What about the “Herbicide injury evaluation 14 days” value ([3]; SEQ ID NO 120 J, 200 g ai/ha + 1% MSO) of the same compound?
**A.** 80

**Q.** And the “Herbicide injury evaluation 14 days” value ([3]; SEQ ID NO 120 M, 50 g ai/ha + 1% MSO)?
**A.** 97

**Q.** And the “Herbicide injury evaluation 14 days” value ([3]; SEQ ID NO 120 M, 100 g ai/ha + 1% MSO)?
**A.** 85

**Q.** What about the “Herbicide injury evaluation 14 days” value ([3]; SEQ ID NO 120 M, 200 g ai/ha + 1% MSO) of the same compound?
**A.** 89

**Q.** How did the “Herbicide injury evaluation 14 days” value ([4]; SEQ ID NO 117 C, 280 g ai/ha + 1% MSO) turn out when Cc1nn(-c2cc(NS(C)(=O)=O)c(Cl)cc2Cl)c(=O)n1C(F)F [Sulfentrazone, sulfentrazone] was run?
**A.** 83

**Q.** And the “Herbicide injury evaluation 14 days” value ([4]; SEQ ID NO 117 C, 560 g ai/ha + 1% MSO)?
**A.** 99

**Q.** And the “Herbicide injury evaluation 14 days” value ([4]; SEQ ID NO 117 C, 1120 g ai/ha + 1% MSO)?
**A.** 98

**Q.** And the “Herbicide injury evaluation 14 days” value ([4]; SEQ ID NO 117 I, 280 g ai/ha + 1% MSO)?
**A.** 89

**Q.** What about the “Herbicide injury evaluation 14 days” value ([4]; SEQ ID NO 117 I, 560 g ai/ha + 1% MSO) of the same compound?
**A.** 85

**Q.** And the “Herbicide injury evaluation 14 days” value ([4]; SEQ ID NO 117 I, 1120 g ai/ha + 1% MSO)?
**A.** 98

**Q.** What about the “Herbicide injury evaluation 14 days” value ([1]; Table 3, SEQ ID NO 118 Q, 280 g ai/ha + 1% MSO) of the same compound?
**A.** 25

**Q.** What about the “Herbicide injury evaluation 14 days” value ([1]; Table 3, SEQ ID NO 118 Q, 560 g ai/ha + 1% MSO) of the same compound?
**A.** 40

**Q.** And the “Herbicide injury evaluation 14 days” value ([1]; Table 3, SEQ ID NO 118 Q, 1120 g ai/ha + 1% MSO)?
**A.** 48

**Q.** And the “Herbicide injury evaluation 14 days” value ([1]; Table 3, SEQ ID NO 118 R, 280 g ai/ha + 1% MSO)?
**A.** 15

**Q.** What about the “Herbicide injury evaluation 14 days” value ([1]; Table 3, SEQ ID NO 118 R, 560 g ai/ha + 1% MSO) of the same compound?
**A.** 18

**Q.** And the “Herbicide injury evaluation 14 days” value ([1]; Table 3, SEQ ID NO 118 R, 1120 g ai/ha + 1% MSO)?
**A.** 40

**Q.** And the “Herbicide injury evaluation 14 days” value ([5]; SEQ ID NO 128 D, 280 g ai/ha + 1% MSO)?
**A.** 73

**Q.** What about the “Herbicide injury evaluation 14 days” value ([5]; SEQ ID NO 128 D, 560 g ai/ha + 1% MSO) of the same compound?
**A.** 83

**Q.** What about the “Herbicide injury evaluation 14 days” value ([5]; SEQ ID NO 128 D, 1120 g ai/ha + 1% MSO) of the same compound?
**A.** 95

**Q.** What about the “Herbicide injury evaluation 14 days” value ([5]; SEQ ID NO 128 E, 280 g ai/ha + 1% MSO) of the same compound?
**A.** 70

**Q.** And the “Herbicide injury evaluation 14 days” value ([5]; SEQ ID NO 128 E, 560 g ai/ha + 1% MSO)?
**A.** 93

**Q.** What about the “Herbicide injury evaluation 14 days” value ([5]; SEQ ID NO 128 E, 1120 g ai/ha + 1% MSO) of the same compound?
**A.** 95

**Q.** What about the “Herbicide injury evaluation 14 days” value ([6]; SEQ ID NO 121 G, 280 g ai/ha + 1% MSO) of the same compound?
**A.** 100

**Q.** What about the “Herbicide injury evaluation 14 days” value ([6]; SEQ ID NO 121 G, 560 g ai/ha + 1% MSO) of the same compound?
**A.** 100

**Q.** And the “Herbicide injury evaluation 14 days” value ([6]; SEQ ID NO 121 G, 1120 g ai/ha + 1% MSO)?
**A.** 100

**Q.** What about the “Herbicide injury evaluation 14 days” value ([6]; SEQ ID NO 121 H, 280 g ai/ha + 1% MSO) of the same compound?
**A.** 100

**Q.** What about the “Herbicide injury evaluation 14 days” value ([6]; SEQ ID NO 121 H, 560 g ai/ha + 1% MSO) of the same compound?
**A.** 100

**Q.** What about the “Herbicide injury evaluation 14 days” value ([6]; SEQ ID NO 121 H, 1120 g ai/ha + 1% MSO) of the same compound?
**A.** 100

**Q.** And the “Herbicide injury evaluation 14 days” value ([2]; Table 3, 280 g ai/ha + 1% MSO)?
**A.** 100

**Q.** And the “Herbicide injury evaluation 14 days” value ([2]; Table 3, 560 g ai/ha + 1% MSO)?
**A.** 100

**Q.** And the “Herbicide injury evaluation 14 days” value ([2]; Table 3, 1120 g ai/ha + 1% MSO)?
**A.** 100
